Assay results published in ChEMBL document CHEMBL4819081 (Eur J Med Chem, 2021).

Assays:
MDA-MB-453 = assay: Antiproliferative activity against human MDA-MB-453 cells assessed as reduction in cell viability after 72 hrs by MTT assay; type: functional, cell-based; details: MDA-MB-453, 72 h
MCF7 = assay: Antiproliferative activity against human MCF7 cells assessed as reduction in cell viability after 72 hrs by MTT assay; type: functional, cell-based; details: MCF7, 72 h
NCI-H1299 = assay: Antiproliferative activity against human NCI-H1299 cells assessed as reduction in cell viability after 72 hrs by MTT assay; type: functional, cell-based; details: NCI-H1299, 72 h
MDA-MB-231 = assay: Antiproliferative activity against human MDA-MB-231 cells assessed as reduction in cell viability after 72 hrs by MTT assay; type: functional, cell-based; details: MDA-MB-231, 72 h
[1] = target: T1, CDK6/cyclin D3 (Homo sapiens) (UniProt P30281+Q00534); assay: Inhibition of CDK6/Cyclin D3 (unknown origin) at 200 nM using ATP by mobility shift assay; type: protein-complex assay
[2] = target: T2, Cyclin-dependent kinase 4/cyclin D1 (Homo sapiens) (UniProt P11802+P24385); assay: Inhibition of CDK4/Cyclin D1 (unknown origin) at 20 nM using ATP by mobility shift assay; type: protein-complex assay
[3] = target: T1, CDK6/cyclin D3 (Homo sapiens); assay: Inhibition of CDK6/Cyclin D3 (unknown origin) at 20 nM using ATP by mobility shift assay; type: protein-complex assay
[4] = target: T2, Cyclin-dependent kinase 4/cyclin D1 (Homo sapiens); assay: Inhibition of CDK4/Cyclin D1 (unknown origin) at 200 nM using ATP by mobility shift assay; type: protein-complex assay

| Compound | IC50 (MDA-MB-453) | IC50 (MCF7) | IC50 (NCI-H1299) | IC50 (MDA-MB-231) | inhibition [1] | inhibition [2] | inhibition [3] | inhibition [4] |
| --- | --- | --- | --- | --- | --- | --- | --- | --- |
| CC(=O)c1c(C)c2cnc(Nc3ccc(N4CCN(CCC(=O)NCCCCNCC#N)CC4)cn3)nc2n(C2CCCC2)c1=O | 12.8 µM | > 20 µM | 8.42 µM | 12.5 µM |  |  |  |  |
| C=CC(=O)NCCCCCCNC(=O)CN1CCN(c2ccc(Nc3ncc4c(C)c(C(C)=O)c(=O)n(C5CCCC5)c4n3)nc2)CC1 | > 20 µM | > 20 µM | > 20 µM | 14.8 µM |  |  |  |  |
| C=CC(=O)NCCCCNC(=O)CCN1CCN(c2ccc(Nc3ncc4c(C)c(C(C)=O)c(=O)n(C5CCCC5)c4n3)nc2)CC1 | > 20 µM | > 20 µM | > 20 µM | > 20 µM |  |  |  |  |
| CC(=O)c1c(C)c2cnc(Nc3ccc(N4CCN(CC(=O)NCCOCCOCCNCC#N)CC4)cn3)nc2n(C2CCCC2)c1=O | > 20 µM | > 20 µM | > 20 µM | > 20 µM |  |  |  |  |
| CC(=O)c1c(C)c2cnc(Nc3ccc(N4CCN(CC(=O)NCCOCCNC(=O)CCl)CC4)cn3)nc2n(C2CCCC2)c1=O | 3.55 µM | 4.25 µM | 16.1 µM | > 20 µM | 102% | 61.4% | 76.7% | 92.7% |
| C=CC(=O)NCCOCCOCCNC(=O)CN1CCN(c2ccc(Nc3ncc4c(C)c(C(C)=O)c(=O)n(C5CCCC5)c4n3)nc2)CC1 | 10.2 µM | > 20 µM | > 20 µM | > 20 µM |  |  |  |  |
| CC(=O)c1c(C)c2cnc(Nc3ccc(N4CCN(CC(=O)NCCCNC(=O)CCl)CC4)cn3)nc2n(C2CCCC2)c1=O | 1.92 µM | 5.22 µM | 7.41 µM | 7.8 µM | 101% | 56.9% | 92.1% | 91.7% |
| C=CC(=O)NCCCCCCNC(=O)CCN1CCN(c2ccc(Nc3ncc4c(C)c(C(C)=O)c(=O)n(C5CCCC5)c4n3)nc2)CC1 | > 20 µM | > 20 µM | > 20 µM | > 20 µM |  |  |  |  |
| CC(=O)c1c(C)c2cnc(Nc3ccc(N4CCN(CCC(=O)NCCCNCC#N)CC4)cn3)nc2n(C2CCCC2)c1=O | > 20 µM | > 20 µM | > 20 µM | > 20 µM |  |  |  |  |
| CC(=O)c1c(C)c2cnc(Nc3ccc(N4CCN(CC(=O)NCCOCCOCCNC(=O)CCl)CC4)cn3)nc2n(C2CCCC2)c1=O | > 20 µM | > 20 µM | > 20 µM | > 20 µM |  |  |  |  |
| CC(=O)c1c(C)c2cnc(Nc3ccc(N4CCN(CCC(=O)NCCCNC(=O)CCl)CC4)cn3)nc2n(C2CCCC2)c1=O | 1.96 µM | 5.48 µM | 7.41 µM | 9.67 µM | 96.4% | 65.5% | 79% | 93.1% |
| C=CC(=O)NCCNC(=O)CCN1CCN(c2ccc(Nc3ncc4c(C)c(C(C)=O)c(=O)n(C5CCCC5)c4n3)nc2)CC1 | > 20 µM | > 20 µM | > 20 µM | > 20 µM |  |  |  |  |
| CC(=O)c1c(C)c2cnc(Nc3ccc(N4CCN(CCC(=O)NCCCCNC(=O)CCl)CC4)cn3)nc2n(C2CCCC2)c1=O | 7.01 µM | 16.6 µM | > 20 µM | > 20 µM | 100% | 52.1% | 89.2% | 92% |
| C=CC(=O)NCCOCCNC(=O)CN1CCN(c2ccc(Nc3ncc4c(C)c(C(C)=O)c(=O)n(C5CCCC5)c4n3)nc2)CC1 | 15.4 µM | > 20 µM | > 20 µM | > 20 µM |  |  |  |  |
| CC(=O)c1c(C)c2cnc(Nc3ccc(N4CCN(CC(=O)NCCCCNC(=O)CCl)CC4)cn3)nc2n(C2CCCC2)c1=O | 8.93 µM | 12.4 µM | > 20 µM | 8.32 µM | 104% | 63% | 82.9% | 94.8% |
| CC(=O)c1c(C)c2cnc(Nc3ccc(N4CCN(CCC(=O)NCCCCCCNCC#N)CC4)cn3)nc2n(C2CCCC2)c1=O | > 20 µM | > 20 µM | > 20 µM | > 20 µM |  |  |  |  |
| CC(=O)c1c(C)c2cnc(Nc3ccc(N4CCN(CCC(=O)NCCOCCOCCNCC#N)CC4)cn3)nc2n(C2CCCC2)c1=O | > 20 µM | > 20 µM | > 20 µM | > 20 µM |  |  |  |  |
| C=CC(=O)NCCOCCOCCNC(=O)CCN1CCN(c2ccc(Nc3ncc4c(C)c(C(C)=O)c(=O)n(C5CCCC5)c4n3)nc2)CC1 | 8.19 µM | > 20 µM | > 20 µM | > 20 µM |  |  |  |  |
| C=CC(=O)NCCOCCNC(=O)CCN1CCN(c2ccc(Nc3ncc4c(C)c(C(C)=O)c(=O)n(C5CCCC5)c4n3)nc2)CC1 | 5.25 µM | > 20 µM | > 20 µM | > 20 µM |  |  |  |  |
